# Test results as given in US8192962B2, “Processes for detecting toxic substances” (Daikin Industries, Ltd., priority 2001, dated 2012).
# Tested on: Genes belonging to other category
# Experiment: DNA chip mRNA expression in yeast, genes belonging to other category (Table 9)
# Type: cell-based, Saccharomyces cerevisiae S288C
# In short: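 Chemical exposure: 2 h, log-phase S. cerevisiae S288C, YPD, 25° C., dose set to inhibit growth without death. Profiling: mRNA labeled by reverse transcription with Cy3- or Cy5-dUTP, hybridized to whole-genome array. Output: fluorescence ratio against untreated culture.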
compound,measurement,setting,value
"Oc1cc(Cl)c(Cl)cc1Cl [(6), 2,4,5-trichlorophenol]",The level of expressed mRNA in the presence of chemical substance/The level of expressed mRNA in the absence of chemical substance,yeast gene YJL210W,0.6
same,The level of expressed mRNA in the presence of chemical substance/The level of expressed mRNA in the absence of chemical substance,yeast gene YJR004C,1.2
same,The level of expressed mRNA in the presence of chemical substance/The level of expressed mRNA in the absence of chemical substance,yeast gene YJR050W,1.4
same,The level of expressed mRNA in the presence of chemical substance/The level of expressed mRNA in the absence of chemical substance,yeast gene YJR086W,1.9
same,The level of expressed mRNA in the presence of chemical substance/The level of expressed mRNA in the absence of chemical substance,yeast gene YJR091C,0.8
same,The level of expressed mRNA in the presence of chemical substance/The level of expressed mRNA in the absence of chemical substance,yeast gene YJR110W,0.9
same,The level of expressed mRNA in the presence of chemical substance/The level of expressed mRNA in the absence of chemical substance,yeast gene YJR117W,1.3
same,The level of expressed mRNA in the presence of chemical substance/The level of expressed mRNA in the absence of chemical substance,yeast gene YJR119C,1.4
same,The level of expressed mRNA in the presence of chemical substance/The level of expressed mRNA in the absence of chemical substance,yeast gene YJR145C,0.4
same,The level of expressed mRNA in the presence of chemical substance/The level of expressed mRNA in the absence of chemical substance,yeast gene YKL008C,3.8
same,The level of expressed mRNA in the presence of chemical substance/The level of expressed mRNA in the absence of chemical substance,yeast gene YKL013C,1.9
same,The level of expressed mRNA in the presence of chemical substance/The level of expressed mRNA in the absence of chemical substance,yeast gene YKL025C,0.9
same,The level of expressed mRNA in the presence of chemical substance/The level of expressed mRNA in the absence of chemical substance,yeast gene YKL039W,4.9
same,The level of expressed mRNA in the presence of chemical substance/The level of expressed mRNA in the absence of chemical substance,yeast gene YKL041W,2.2
same,The level of expressed mRNA in the presence of chemical substance/The level of expressed mRNA in the absence of chemical substance,yeast gene YKL079W,0.8
same,The level of expressed mRNA in the presence of chemical substance/The level of expressed mRNA in the absence of chemical substance,yeast gene YKL096W,0.6
same,The level of expressed mRNA in the presence of chemical substance/The level of expressed mRNA in the absence of chemical substance,yeast gene YKL139W,3.5
same,The level of expressed mRNA in the presence of chemical substance/The level of expressed mRNA in the absence of chemical substance,yeast gene YKL165C,0.6
same,The level of expressed mRNA in the presence of chemical substance/The level of expressed mRNA in the absence of chemical substance,yeast gene YKL193C,0.9
same,The level of expressed mRNA in the presence of chemical substance/The level of expressed mRNA in the absence of chemical substance,yeast gene YKL196C,0.9
same,The level of expressed mRNA in the presence of chemical substance/The level of expressed mRNA in the absence of chemical substance,yeast gene YKR014C,2.1
same,The level of expressed mRNA in the presence of chemical substance/The level of expressed mRNA in the absence of chemical substance,yeast gene YKR098C,1.8
same,The level of expressed mRNA in the presence of chemical substance/The level of expressed mRNA in the absence of chemical substance,yeast gene YLR120C,1.9
same,The level of expressed mRNA in the presence of chemical substance/The level of expressed mRNA in the absence of chemical substance,yeast gene YLR136C,1.7
same,The level of expressed mRNA in the presence of chemical substance/The level of expressed mRNA in the absence of chemical substance,yeast gene YLR144C,0.9
same,The level of expressed mRNA in the presence of chemical substance/The level of expressed mRNA in the absence of chemical substance,yeast gene YLR178C,4.2
same,The level of expressed mRNA in the presence of chemical substance/The level of expressed mRNA in the absence of chemical substance,yeast gene YLR206W,0.5
same,The level of expressed mRNA in the presence of chemical substance/The level of expressed mRNA in the absence of chemical substance,yeast gene YLR250W,1.1
same,The level of expressed mRNA in the presence of chemical substance/The level of expressed mRNA in the absence of chemical substance,yeast gene YLR266C,1.0
same,The level of expressed mRNA in the presence of chemical substance/The level of expressed mRNA in the absence of chemical substance,yeast gene YLR327C,5.1
same,The level of expressed mRNA in the presence of chemical substance/The level of expressed mRNA in the absence of chemical substance,yeast gene YLR356W,3.4
same,The level of expressed mRNA in the presence of chemical substance/The level of expressed mRNA in the absence of chemical substance,yeast gene YLR360W,1.4
same,The level of expressed mRNA in the presence of chemical substance/The level of expressed mRNA in the absence of chemical substance,yeast gene YLR362W,0.8
same,The level of expressed mRNA in the presence of chemical substance/The level of expressed mRNA in the absence of chemical substance,yeast gene YLR389C,0.2
same,The level of expressed mRNA in the presence of chemical substance/The level of expressed mRNA in the absence of chemical substance,yeast gene YLR391W,1.5
same,The level of expressed mRNA in the presence of chemical substance/The level of expressed mRNA in the absence of chemical substance,yeast gene YLR429W,0.8
same,The level of expressed mRNA in the presence of chemical substance/The level of expressed mRNA in the absence of chemical substance,yeast gene YMR004W,0.5
same,The level of expressed mRNA in the presence of chemical substance/The level of expressed mRNA in the absence of chemical substance,yeast gene YMR094W,0.5
same,The level of expressed mRNA in the presence of chemical substance/The level of expressed mRNA in the absence of chemical substance,yeast gene YMR101C,0.4
same,The level of expressed mRNA in the presence of chemical substance/The level of expressed mRNA in the absence of chemical substance,yeast gene YMR104C,1.9
same,The level of expressed mRNA in the presence of chemical substance/The level of expressed mRNA in the absence of chemical substance,yeast gene YMR219W,0.8
same,The level of expressed mRNA in the presence of chemical substance/The level of expressed mRNA in the absence of chemical substance,yeast gene YMR226C,2.6
same,The level of expressed mRNA in the presence of chemical substance/The level of expressed mRNA in the absence of chemical substance,yeast gene YMR275C,1.4
same,The level of expressed mRNA in the presence of chemical substance/The level of expressed mRNA in the absence of chemical substance,yeast gene YMR276W,0.8
same,The level of expressed mRNA in the presence of chemical substance/The level of expressed mRNA in the absence of chemical substance,yeast gene YMR297W,1.8
same,The level of expressed mRNA in the presence of chemical substance/The level of expressed mRNA in the absence of chemical substance,yeast gene YMR314W,1.3
same,The level of expressed mRNA in the presence of chemical substance/The level of expressed mRNA in the absence of chemical substance,yeast gene YNL006W,1.0
same,The level of expressed mRNA in the presence of chemical substance/The level of expressed mRNA in the absence of chemical substance,yeast gene YNL007C,0.6
same,The level of expressed mRNA in the presence of chemical substance/The level of expressed mRNA in the absence of chemical substance,yeast gene YNL069C,0.4
same,The level of expressed mRNA in the presence of chemical substance/The level of expressed mRNA in the absence of chemical substance,yeast gene YNL093W,1.6
same,The level of expressed mRNA in the presence of chemical substance/The level of expressed mRNA in the absence of chemical substance,yeast gene YNL333W,1.5
same,The level of expressed mRNA in the presence of chemical substance/The level of expressed mRNA in the absence of chemical substance,yeast gene YNR010W,1.3
same,The level of expressed mRNA in the presence of chemical substance/The level of expressed mRNA in the absence of chemical substance,yeast gene YNR069C,1.7
same,The level of expressed mRNA in the presence of chemical substance/The level of expressed mRNA in the absence of chemical substance,yeast gene YOL013C,1.1
same,The level of expressed mRNA in the presence of chemical substance/The level of expressed mRNA in the absence of chemical substance,yeast gene YOL039W,0.4
same,The level of expressed mRNA in the presence of chemical substance/The level of expressed mRNA in the absence of chemical substance,yeast gene YOL120C,0.3
same,The level of expressed mRNA in the presence of chemical substance/The level of expressed mRNA in the absence of chemical substance,yeast gene YOL164W,1.2
same,The level of expressed mRNA in the presence of chemical substance/The level of expressed mRNA in the absence of chemical substance,yeast gene YOR023C,1.8
same,The level of expressed mRNA in the presence of chemical substance/The level of expressed mRNA in the absence of chemical substance,yeast gene YOR036W,1.7
same,The level of expressed mRNA in the presence of chemical substance/The level of expressed mRNA in the absence of chemical substance,yeast gene YOR117W,1.1
same,The level of expressed mRNA in the presence of chemical substance/The level of expressed mRNA in the absence of chemical substance,yeast gene YOR124C,0.9
same,The level of expressed mRNA in the presence of chemical substance/The level of expressed mRNA in the absence of chemical substance,yeast gene YOR132W,1.6
same,The level of expressed mRNA in the presence of chemical substance/The level of expressed mRNA in the absence of chemical substance,yeast gene YOR133W,0.9
same,The level of expressed mRNA in the presence of chemical substance/The level of expressed mRNA in the absence of chemical substance,yeast gene YOR134W,1.4
same,The level of expressed mRNA in the presence of chemical substance/The level of expressed mRNA in the absence of chemical substance,yeast gene YOR157C,1.2
same,The level of expressed mRNA in the presence of chemical substance/The level of expressed mRNA in the absence of chemical substance,yeast gene YOR181W,0.9
same,The level of expressed mRNA in the presence of chemical substance/The level of expressed mRNA in the absence of chemical substance,yeast gene YOR185C,3.0
same,The level of expressed mRNA in the presence of chemical substance/The level of expressed mRNA in the absence of chemical substance,yeast gene YOR198C,0.9
same,The level of expressed mRNA in the presence of chemical substance/The level of expressed mRNA in the absence of chemical substance,yeast gene YOR259C,0.8
same,The level of expressed mRNA in the presence of chemical substance/The level of expressed mRNA in the absence of chemical substance,yeast gene YOR261C,1.4
same,The level of expressed mRNA in the presence of chemical substance/The level of expressed mRNA in the absence of chemical substance,yeast gene YOR288C,1.0
same,The level of expressed mRNA in the presence of chemical substance/The level of expressed mRNA in the absence of chemical substance,yeast gene YOR327C,1.4
same,The level of expressed mRNA in the presence of chemical substance/The level of expressed mRNA in the absence of chemical substance,yeast gene YOR355W,1.6
same,The level of expressed mRNA in the presence of chemical substance/The level of expressed mRNA in the absence of chemical substance,yeast gene YOR362C,1.4
same,The level of expressed mRNA in the presence of chemical substance/The level of expressed mRNA in the absence of chemical substance,yeast gene YOR383C,6.8
same,The level of expressed mRNA in the presence of chemical substance/The level of expressed mRNA in the absence of chemical substance,yeast gene YPL089C,0.8
same,The level of expressed mRNA in the presence of chemical substance/The level of expressed mRNA in the absence of chemical substance,yeast gene YPL109C,1.2
same,The level of expressed mRNA in the presence of chemical substance/The level of expressed mRNA in the absence of chemical substance,yeast gene YPL149W,0.9
same,The level of expressed mRNA in the presence of chemical substance/The level of expressed mRNA in the absence of chemical substance,yeast gene YPL154C,3.5
same,The level of expressed mRNA in the presence of chemical substance/The level of expressed mRNA in the absence of chemical substance,yeast gene YPR028W,1.4
same,The level of expressed mRNA in the presence of chemical substance/The level of expressed mRNA in the absence of chemical substance,yeast gene YPR080W,1.4
same,The level of expressed mRNA in the presence of chemical substance/The level of expressed mRNA in the absence of chemical substance,yeast gene YPR103W,1.2
same,The level of expressed mRNA in the presence of chemical substance/The level of expressed mRNA in the absence of chemical substance,yeast gene YPR108W,1.5
same,The level of expressed mRNA in the presence of chemical substance/The level of expressed mRNA in the absence of chemical substance,yeast gene YPR168W,0.4
